The values below come from patent publication US20160303068A1, “Compositions and Methods For Treating Brain Injury and Brain Diseases” (University of Washington through its Center for …, priority 2013, published 2016).

Entries after “also recorded” stand apart in the source; their conditions may differ.

Series [1] concerns AD transgenic mouse models. As to conditions: in vivo; cited from earlier work.
Series [2] deals with rodent model of traumatic brain injury. The series can be described thus: MRI (T1-weighted, quantitative T2 maps) of injury volume and edema after controlled cortical impact. The format is in vivo, C57BL6 mice. The method, then: (§1) Rodent subjects (C57BL6 mice, 10 wks, male, n=12) had craniotomy over the right frontoparietal cortex of 5 mm, plus mild controlled cortical impact (CCI) surgery using a pneumatic impactor (AmScien Instruments, Richmond, Va.) at 6 m/s strike velocity, 1 mm depth of penetration, and 150 ms contact time, under isoflurane anesthesia. Immediately following CCI, 200 ug/kg paclitaxel (n=6) or vehicle (n=6) was applied to the brain injury site. Sham surgery (craniotomy, but no CCI) was performed on controls (n=3).
(§2) At 2 days post-surgery, gait assessment of the subjects was conducted using CatWalk automated gait analysis (Noldus Information Tech, The Netherlands) followed by high-tesla magnetic resonance imaging (14T MR Avance III Ultrashield, Bruker BioSpin, Billerica, Mass.). T1-weighted and quantitative T2 maps were obtained: MDEFT (3D modified driven equilibrium Fourier transform), […]: 12°, TR (repetition time): 5000 ms, TE (echo time): 1.9ms, resolution 0.140×0.140×0.25 mm^3, 64 slices; T2 map: TR=2000 ms, 16 echoes, spacing:6.7 ms, TE1: 6.7 ms, TE 2:13.4 ms, resolution 0.12×0.12×1.0 mm^3, 15 slices. Manual volume of interest (VOI) analysis of injury volume and volume of edema related to injury was performed.

The next series deals with 3×Tg-AD mice. Description: Manganese-enhanced MRI (MEMRI) of axonal transport rates in the olfactory tract, 3×Tg-AD mice. As to conditions: intranasal 0.6 mg/kg, vs saline or young wild-type controls. The format is in vivo. An excerpt: MRI: Mice are anesthetized with isoflurane and scanned on an ultra-high resolution 14T MRI (Avance III, Bruker BioSpin Corp, Billerica, Mass.). Dynamic manganese enhanced magnetic resonance imaging (dyMEMRI): Mice are anesthetized with isoflurane and administered a unilateral injection of Sul of 1 M MnCl2 intranasally (with occlusion to block septal window). Parameters for magnetization prepared rapid gradient echo (MPRAGE) (TR/TE=11/5.3 ms; Ti=1000 ms; FA=9 deg acquired matrix 108×108 mm over 55 slices, voxel 0.2×0.2×0.4 mm3 interpolated to 0.1×0.1×0.2 mm3). […] MicroPET: Metabolic brain activity is assessed using FDG-PET performed under isoflurane anesthesia with 30 min uptake after 250 μCi intraperitoneal injection of FDG. […]
The effect of intra-nasal treatment of taxanes on the development of neurodegenerative pathology in a model of Alzheimer's disease was also studied. […] Treatment effectiveness was assessed with the same outcome measures as described in Example 1.
(§3) Intranasal paclitaxel (Hospira, Inc., Lake Forest, Ill.) was administered to 3×Tg-AD mice (0.6 mg/kg in 0.9 percent saline, […] per nostril). […] Dynamic T1-weighted MR imaging detected signal enhancement and post-processing algorithms calculate a relative rate of transport. […]

A further series concerns wild-type mice. The series can be described thus: Manganese-enhanced MRI (MEMRI) of axonal transport rates, wild-type mice. The format is in vivo. The following applies: wild-type mice treated with paclitaxel vs young wild-type controls, p≦0.01.
Excerpt: MRI: Mice are anesthetized with isoflurane and scanned on an ultra-high resolution 14T MRI (Avance III, Bruker BioSpin Corp, Billerica, Mass.). Dynamic manganese enhanced magnetic resonance imaging (dyMEMRI): Mice are anesthetized with isoflurane and administered a unilateral injection of Sul of 1 M MnCl2 intranasally (with occlusion to block septal window). Parameters for magnetization prepared rapid gradient echo (MPRAGE) (TR/TE=11/5.3 ms; Ti=1000 ms; FA=9 deg acquired matrix 108×108 mm over 55 slices, voxel 0.2×0.2×0.4 mm3 interpolated to 0.1×0.1×0.2 mm3). Mice are scanned dynamically for 45 min (early uptake) at 1 hour post administration, allowed to recover and scanned again at 4-6 hours post (late transport) for 60 min. DTI acquired as 4 shot echo planar image (EPI); TR/TE=4000/18 ms, 30 diffusion directions, multislice 2D, b=1000 s/mm2, FOV 19×19 mm, matrix size=128×128 with slice thickness=0.5 mm over 9 min. MicroPET: Metabolic brain activity is assessed using FDG-PET performed under isoflurane anesthesia with 30 min uptake after 250 μCi intraperitoneal injection of FDG. […]
as §3

Series [3] is described as follows: [3H] paclitaxel distribution in brain via intranasal administration. It is filed as in vivo, male CD-1 mice. The following applies: 1 μCi [3H] paclitaxel in 1 μl PBS to the right nares. As for the experimental part: FIGS. 4 A and 4B are graphs showing [^3H] paclitaxel distribution via intranasal administration in male CD-1 mice, 8 weeks, after administration of 1 μCi of [^3H] paclitaxel in 1 μl PBS to the right nares;
FIGS. 4A and 4B show distribution of a taxane (paclitaxel) in the brain, when the taxane is administered intranasally. […] Thus, the intranasally administered taxane can bypass the blood-brain barrier (BBB) via the olfactory epithelium, and thereby provide therapeutic effect to a subject. The treatment methods can advantageously administer drug to the brain (e.g., an injured area of the brain) while minimizing side effects in non-target organs. The methods can have widespread applications. For example, intranasal administration of taxanes can result in decreased neuroinflammation, and can therefore be used in treatment of neuroinflammatory conditions, such as neurodegenerative diseases including Alzheimer's disease and related tauopathies, multiple sclerosis, viral infections, Parkinson's disease, as well as head trauma and mild concussions.

The test system of series [4] is rodent model of traumatic brain injury. The series can be described thus: CatWalk automated gait analysis after CCI. It is filed as in vivo, C57BL6 mice. As for the experimental part:
as §1, §2

For series [5] the test system is unchanged. Description: Macromolecular proton fraction (MPF) imaging of myelin density adjacent to injury after CCI. It is filed as in vivo, C57BL6 mice. As for the experimental part:
as §1
Macromolecular proton fraction (MPF) imaging is a quantitative magnetic resonance technique that measures the magnetization transfer between protons bound to water and protons bound to macromolecules. MPF imaging was performed to evaluate myelin degradation adjacent to injury. […] Mean myelin density was calculated for a region of interest (circular region having a diameter of […]) that was larger than the actual injury (1.5 mm).

In a further series the test system is spinal cord injury. As to conditions: after spinal cord injury; cited from earlier work.
The test system of series [6] is rodent model of traumatic brain injury. Description: Fractional anisotropy imaging of external capsule integrity after CCI. It is filed as in vivo, C57BL6 mice. The following applies: following CCI; paclitaxel not intranasally administered. As for the experimental part:
as §1
The MPF results were corroborated using cross-relaxation imaging. Cross-relaxation imaging (CRI) is a quantitative magnetic resonance technique that measures the kinetic parameters of magnetization transfer between protons bound to water and protons bound to macromolecules. Here, in vivo, four-parameter CRI of normal rat brains (n=5) at 3.0 T was first directly compared to histology. The bound pool fraction, f, was strongly associated with myelin density (Pearson's r=0.99, p<0.001). The correlation persisted in separate analyses of gray matter (GM; r=0.89, p=0.046) and white matter (WM; r=0.97, p=0.029). The CRI results validated the MPF results, in that the taxane helped to preserve myelin density around the injury. Fractional anisotropy imaging was carried out to evaluate the integrity of underlying external capsule. […]

The subject of series [7] is glia fibrillary acidic protein (GFAP) expression. The series can be described thus: GFAP immunostain of CA1 region of hippocampus (reactive astrocytes). It is filed as in vivo, 3×Tg-AD mice. As to conditions: intranasal 0.6 mg/kg at 2 week intervals for 3 months; vs saline. As for the experimental part: Histology and Westerns. All confocal microscopy and immunohistochemistry are performed on perfusion fixed tissue prepared from animals that, immediately after euthanasia with pentobaritol (100 mg/kg), are perfused with saline followed by 4 percent paraformaldehyde/saline. For biochemical experiments (Western blots, etc.) other animals are perfused after death with saline and then the brains are rapidly dissected and flash frozen in liquid N2. Brain sections corresponding to the olfactory bulb are stained for Fluoro-Jade (1:1000, Histo-Chem Inc., AR, USA) as a marker of degenerating neurons and can be used to assess if 9 months of paclitaxel intranasal treatment may be neurotoxic. Glial fibrillary acidic protein (GFAP, 1:1500, Dako, Carpinteria, Calif.), an astroglial marker, and ionized calcium-binding adapter molecule 1 (Iba-1) (1:1000 Dako, Carpinteria, Calif.), a marker of microglial activation are processed using Avidin-Biotin procedure, which uses biotinylated secondary antibodies, avidin coupled to horse radish peroxidase (HRP) and reacted with 3,3′diaminobenzidine.
The application of paclitaxel to 3×Tg-AD mice (0.6 mg/kg at 2 week intervals for 3 months, intranasal administration) was investigated. It has been shown that microglia and astrocytes respond acutely to brain injury. […]

As for `C/C1=C/C[C@@H](/C(C)=C/c2csc(C)n2)OC(=O)C[C@H](O)C(C)(C)C(=O)[C@H](C)[C@@H](O)[C@@H](C)CCC1` [epothilone D], in series [1], the cognitive performance result was “improve cognitive performance” and the tau pathology result was “reduce associated tau pathology”.

As for `CC(=O)O[C@H]1C(=O)[C@@]2(C)[C@H]([C@H](OC(=O)c3ccccc3)[C@]3(O)C[C@H](OC(=O)[C@H](O)[C@@H](NC(=O)c4ccccc4)c4ccccc4)C(C)=C1C3(C)C)[C@]1(OC(C)=O)CO[C@@H]1C[C@@H]2O` [paclitaxel], the injury volume in series [2] (200 ug/kg applied to brain injury site immediately after CCI, MRI 2 days post-surgery, vs vehicle 9.96±2.3, p≦0.05) was 7.94±1.5 mm^3. The “hyperintense voxels (edema) on quantitative T2 maps” value in [2] (200 ug/kg applied to brain injury site, 2 days post-surgery, vs vehicle 11.92±3.0, p≦0.05) is recorded as 8.86±2.2 mm^3. For the same molecule, the “reduction of hyperintense voxels (edema)” value in [2] (200 ug/kg applied to brain injury site, vs vehicle) came out at 26%. For the same molecule, the “reduction in injury volume” value in series [2] (200 ug/kg applied to brain injury site, vs vehicle, T2 and T1 images) is listed as 20%. Moreover, the “injury volume on T1-weighted MRI (in words)” value in [2] (paclitaxel versus saline treatment) was “indicating reduced injury”. Besides, the axonal transport rates result with 3×Tg-AD mice was “increased transport significantly; also recorded: Improved axonal transport rates; also recorded: relatively increased”. In addition, the axonal transport rates entry with wild-type mice is on record as “relatively increased”. In series [3], the “brain regions taking up taxane (FIG. 4A)” value is “taken up by the olfactory bulbs, the striatum, the hippocampus, the frontal cortex, the hypothalamus, and the cerebellum”; the “regional brain uptake level (second distribution graph)” value was “high striatum and hypothalamus uptake”. The molecule also returned a maximum print area in series [4] (2 days post-surgery, vs vehicle 0.29±0.08, p≦0.05) of 0.38±0.09 cm^2. Further, the mean intensity in [4] (2 days post-surgery, vs vehicle 66.38±5.52, p≦0.05) came out at 79.45±14.26. In [4] (right front (RF) and left hind (LF) only, vs vehicle), the “swing, decreased” value is on record as 12%. Further, the “print length, increase” value in series [4] (right hind (RH) only, vs vehicle) amounted to 12%. The “gait parameters (in words)” value in [4] (short term, 8 days, paclitaxel over saline treated subjects) is “Improved gait parameters”. In addition, in [4] (vs vehicle), the “maximum print area, increased” value is given as 22-52%; the “mean intensity, increased” value is 19-22%; the “print area, increased” value was 20-45%; the “print width, increased” value is 5-17%. For the same molecule, the “MPF bound percent, injury side” value in series [5] (mn±sd, vs vehicle 8.95±0.3, p≦0.05) is 9.45±0.4. For the same molecule, in series [5] (vs vehicle), the “MPF bound percent, contralateral cortical area” value is recorded as “No difference” and the “increase of MPF bound percent on the injury side” value was 6.6%. The axon regeneration result with spinal cord injury is “facilitate axon regeneration”. Further, the “underlying white matter integrity (FA values in external capsule)” value in series [6] was “No significant improvement”. In addition, the “GFAP expression / reactive astrocytes in CA1 region of hippocampus” value in series [7] is “decreased evidence of activated astrocytes; also recorded: markedly reduced reactive astrocytes; also recorded: reduced GFAP expression levels; also recorded: showing reduced”.
